Tests used:
[1] = test system: Silicibacter sp. strain TM1040; assay: Chemotaxis plate screening assay (change in motile colony morphology); type: cell-based; details: for Change in morphology with carbon source Alanine / Change in morphology with carbon source Glucose / Change in morphology with carbon source Glycerol / Change in morphology with carbon source Succinate: BM motility agar; for Change in morphology with carbon source Alanine: alanine as single carbon source; for Change in morphology with carbon source Glucose: glucose as single carbon source; for Change in morphology with carbon source Glycerol: glycerol as single carbon source; for Change in morphology with carbon source Succinate: succinate as single carbon source; as to Change in morphology with carbon source Alanine: key: −: minus indicates no change compared to distilled water or no attractant controls; +: either one or two pluses indicates moderate to strong alteration in motile colony phenotype (respectively); ++: either one or two pluses indicates moderate to strong alteration in motile colony phenotype (respectively); as to Change in morphology with carbon source Glucose: key: −: minus indicates no change compared to distilled water or no attractant controls; +: either one or two pluses indicates moderate to strong alteration in motile colony phenotype (respectively); ++: either one or two pluses indicates moderate to strong alteration in motile colony phenotype (respectively); as to Change in morphology with carbon source Glycerol: key: −: minus indicates no change compared to distilled water or no attractant controls; +: either one or two pluses indicates moderate to strong alteration in motile colony phenotype (respectively); ++: either one or two pluses indicates moderate to strong alteration in motile colony phenotype (respectively); as to Response: change in motile colony morphology of TM1040 in response to attractants, compared to the control: key: −: minus indicates no change compared to distilled water or no attractant controls; +: either one or two pluses indicates moderate to strong alteration in motile colony phenotype (respectively); ++: either one or two pluses indicates moderate to strong alteration in motile colony phenotype (respectively)
Description: Following 36 h of incubation, a putative attractant was placed approximately 5 cm from the site of inoculation (or 2.5 cm in front of the periphery of motile cells). Possible chemoattractant compounds were administered as either a sterile solid or concentrated stock solutions. The cells were further incubated for 16 h to allow for additional outward movement, at which time measurement of diameter, shape, and chemotaxis rings internal to the motile colony were made.
[…] Bacteria inoculated into the center of the agar consume nutrients and create a concentration gradient that increases outward from the point of inoculation. The bacteria sense the increasing gradient and swim outwards, seeking higher concentrations of nutrients, which is manifested as a symmetrical “motile” colony. If an attractant is placed at a short distance in front of the advancing motile colony, it forms a second gradient moving towards the oncoming cells that will affect the symmetry of the colony by reducing the net outward swimming of the bacteria.

[2] = test system: Silicibacter sp. strain TM1040; assay: Quantitative capillary chemotaxis assay; type: cell-based; details: pure compounds, FIG. 12; capillaries filled with 2 μM or 200 μM attractant
Text: The cells were pelleted by centrifugation at 4,000×g in a tabletop centrifuge (Centra-CL2; International Equipment Company), the supernatant was discarded, and the pellet was resuspended in chemotaxis buffer (CB) (15 g of ASW, 6 g of Tris-HCl per liter [pH 7.6]) to the same OD. Five hundred microliters of washed cells was placed in one of the wells of the Palleroni chamber, followed by a 1-μl capillary (Microcaps; Drummond) filled with a putative attractant diluted in CB. This process was repeated for each of the four wells in the chamber. A capillary filled with CB only was included in each experiment as a negative control. Depending on the experiment, capillaries remained in the chambers for 0.5 to 2 h, after which time they were removed, and the contents of each capillary were serially diluted in CB. Final dilutions were then spread on HIASW agar plates and incubated for 16 h at 30° C. The concentration of TM1040 in each capillary was derived by counting the CFU on each plate and multiplying by the appropriate dilution factor. […]

[3] = glucose background (BM glucose)

SMILES | Response: change in motile colony morphology of TM1040 in response to attractants, compared to the control ([1]; BM glycerol motility agar) | chemotactic response of TM1040 in plate assay ([1]; BM glycerol motility agar) | further results
C[C@H](N)C(=O)O [Alanine] | ++ |  | Change in morphology with carbon source Alanine [1]: −; Change in morphology with carbon source Glucose [1]: −; Change in morphology with carbon source Glycerol [1]: ++; Change in morphology with carbon source Succinate [1]: +
O=C(O)CCC(=O)C(=O)O [Alpha-ketoglutarate] | − | no response | Change in morphology with carbon source Alanine [1]: −; Change in morphology with carbon source Glucose [1]: −; Change in morphology with carbon source Glycerol [1]: −; Change in morphology with carbon source Succinate [1]: +; response factor (mean) [2]: none were found to be significant chemoattractants
O=C(O)CC(O)(CC(=O)O)C(=O)O [Citrate] | ++ | strong positive response | response factor (mean) [2]: none were found to be significant chemoattractants
C[S+](C)[O-] [DMSO, dimethyl sulfoxide] | − |  | Change in morphology with carbon source Alanine [1]: −; Change in morphology with carbon source Glucose [1]: −; Change in morphology with carbon source Glycerol [1]: −; Change in morphology with carbon source Succinate [1]: −
O=C[C@H](O)[C@@H](O)[C@@H](O)[C@H](O)CO [Galactose] | ++ | responded positively | Change in morphology with carbon source Alanine [1]: −; Change in morphology with carbon source Glucose [1]: −; Change in morphology with carbon source Glycerol [1]: ++; Change in morphology with carbon source Succinate [1]: +
NCC(=O)O [Glycine] | + |  | response factor (mean) [2]: ca. 3.5
OC[C@H]1O[C@@H](O[C@H]2[C@H](O)[C@@H](O)C(O)O[C@@H]2CO)[C@H](O)[C@@H](O)[C@H]1O (some centres unmarked) [Lactose] | − |  | Change in morphology with carbon source Alanine [1]: −; Change in morphology with carbon source Glucose [1]: −; Change in morphology with carbon source Glycerol [1]: −; Change in morphology with carbon source Succinate [1]: −
O=C(O)CCS [MPA, 3-mercaptopropionate] | + | only weakly | 
CC(=O)N[C@H]1C(O)O[C@H](CO)[C@@H](O)[C@@H]1O (some centres unmarked) [N-acetylglucosamine] | ++ | responded positively | Change in morphology with carbon source Alanine [1]: +; Change in morphology with carbon source Glucose [1]: −; Change in morphology with carbon source Glycerol [1]: ++; Change in morphology with carbon source Succinate [1]: +
O=C(O)CCC(=O)O [Succinate] | + | mild response | Change in morphology with carbon source Alanine [1]: ++; Change in morphology with carbon source Glucose [1]: +; Change in morphology with carbon source Glycerol [1]: +; Change in morphology with carbon source Succinate [1]: −; chemotactic response of TM1040 in plate assay [1, 3]: moderate response; response factor (mean) [2]: none were found to be significant chemoattractants
C=CC(=O)O [acrylate] | ++ | responded strongly | Change in morphology with carbon source Alanine [1]: +; Change in morphology with carbon source Glucose [1]: +; Change in morphology with carbon source Glycerol [1]: ++; Change in morphology with carbon source Succinate [1]: ++; chemotactic response of TM1040 in plate assay [1, 3]: moderate response
O=C[C@@H](O)[C@H](O)[C@H](O)CO [arabinose] | − | no detectable change in the appearance of the motile colony | 
N=C(N)NCCC[C@H](N)C(=O)O [arginine] | ++ |  | 
NC(=O)C[C@H](N)C(=O)O [asparagine] | ++ |  | 
N[C@@H](CC(=O)O)C(=O)O [aspartic acid] | ++ |  | 
N[C@@H](CS)C(=O)O [cysteine] | + |  | 
O=C(CO)[C@@H](O)[C@H](O)[C@H](O)CO [fructose] | − | no detectable change in the appearance of the motile colony | 

SMILES | Response: change in motile colony morphology of TM1040 in response to attractants, compared to the control ([1]; BM glycerol motility agar) | chemotactic response of TM1040 in plate assay ([1]; BM glycerol motility agar) | further results
C[C@H](O)[C@@H](O)[C@@H](O)[C@H](O)C=O [fucose] | − |  | 
O=C(O)/C=C/C(=O)O [fumurate] | ++ | strong positive response | 
N[C@@H](CCC(=O)O)C(=O)O [glutamic acid] | ++ |  | Change in morphology with carbon source Alanine [1]: −; Change in morphology with carbon source Glucose [1]: −; Change in morphology with carbon source Glycerol [1]: ++; Change in morphology with carbon source Succinate [1]: +
OCC(O)CO [glycerol] | + |  | 
N[C@@H](Cc1c[nH]cn1)C(=O)O [histidine] | + |  | 
CC[C@H](C)[C@H](N)C(=O)O [isoleucine] | + |  | 
CC(C)C[C@H](N)C(=O)O [leucine] | + |  | 
OC[C@H]1O[C@H](O[C@H]2[C@H](O)[C@@H](O)[C@H](O)O[C@@H]2CO)[C@H](O)[C@@H](O)[C@@H]1O [maltose] | + | responded positively | Change in morphology with carbon source Alanine [1]: ++; Change in morphology with carbon source Glucose [1]: −; Change in morphology with carbon source Glycerol [1]: +; Change in morphology with carbon source Succinate [1]: ++
N[C@@H](Cc1ccccc1)C(=O)O [phenylalanine] | ++ |  | 
O=C(O)[C@@H]1CCCN1 [proline] | ++ |  | 
O=C[C@H](O)[C@H](O)[C@H](O)CO [ribose] | − |  | 
N[C@@H](CO)C(=O)O [serine] | + |  | 
OC[C@H]1O[C@@](CO)(O[C@H]2O[C@H](CO)[C@@H](O)[C@H](O)[C@H]2O)[C@@H](O)[C@@H]1O [sucrose] | ++ | responded positively | 
C[C@@H](O)[C@H](N)C(=O)O [threonine] | ++ |  | 
N[C@@H](Cc1c[nH]c2ccccc12)C(=O)O [tryptophan] | + |  | 
N[C@@H](Cc1ccc(O)cc1)C(=O)O [tyrosine] | + |  | 
O=C[C@H](O)[C@@H](O)[C@H](O)CO [xylose] | − |  | 

— patent US20090142429A1, “SILICIBACTER SP. STRAIN USEFUL FOR GENETIC TRANSFORMATION OF MARINE ALGAE AND PRODUCTION OF ANTIBIOTIC AGENTS” (UNIVERSITY OF MARYLAND BIOTECHNOLOGY INSTITUTE, priority 2005, published 2009)
